In patent US9580444B2, “Polycyclic pyrazolinone derivative and herbicide comprising same as effective component thereof” (priority 2013, dated 2017):

Columns and labels:
Assay in all cases: Test Example-1: herbicidal effect by a treatment before weeds are generated under submerged conditions
Assay type in all cases: in vivo
Settings in all cases: 500 g a.i/ha, pre-emergence treatment, about 15 days after treatment, score 0-5
[1] = tested on: Cyperus difformis (smallflower umbrella plant)
Procedure: (§1) Using the formulation prepared according to the methods described above, the herbicidal effect of the bicyclic pyrazolinone derivative of the invention according to the methods shown in Test Examples below was examined. The herbicidal effect with respect to the test weeds or the phytotoxicity with respect to the test crops was examined according to the following criteria, and evaluated in six stage scores of 0 to 5.
(§2) A plastic cup of 30 cm^2 was filled with paddy soil, soil puddling was performed, seeds of Echinochloa oryzicola (barnyard grass), Cyperus difformis (smallflower umbrella plant), Monochoria vaginalis (monochoria), Scirpus juncoides (bulrush), and Eleocharis acicularis (needle spikerush), and Lindernia procumbens (common false pimpernel), Rotala indica (indian toothcup), Elatine triandra (waterwort) as other annual broad leaf weeds were seeded therein, and kept in a submerged state. A wettable powder or an emulsifiable concentrate of the compound of the present invention prepared according to Formulation Example was diluted on the weed seeding day, and a submersing treatment was performed so as to be a predetermined dosage. The herbicidal effect with respect to the test weeds about 15 days after the treatment was evaluated according to the evaluation criteria in six stages of 0 to 5 described above.

[2] = tested on: other annual broad leaf weeds (Lindernia procumbens, Rotala indica, Elatine triandra)
Procedure: as §1, §2

[3] = tested on: Eleocharis acicularis (needle spikerush)
Procedure: as §1, §2

[4] = tested on: Echinochloa oryzicola (barnyard grass)
Procedure: as §1, §2

[5] = tested on: Monochoria vaginalis (monochoria)
Procedure: as §1, §2

[6] = tested on: Scirpus juncoides (bulrush)
Procedure: as §1, §2

Row | Compound | Herbicidal effect Cyperus difformis [1] | Herbicidal effect Broadleaf weed [2] | Herbicidal effect Eleocharis acicularis [3] | Herbicidal effect Echinochloa oryzicola [4] | Herbicidal effect Monochoria vaginalis [5] | Herbicidal effect Scirpus juncoides [6]
1 | C=CCOc1cc(F)ccc1Oc1cc(-c2c(Cl)n3n(c2=O)CCCC3)c(F)cc1Cl [Compound 3-34] | 5 (Herbicidal effect/phytotoxicity was 90% or greater) | 5 (Herbicidal effect/phytotoxicity was 90% or greater) | 5 (Herbicidal effect/phytotoxicity was 90% or greater) | 5 (Herbicidal effect/phytotoxicity was 90% or greater) | 5 (Herbicidal effect/phytotoxicity was 90% or greater) | 5 (Herbicidal effect/phytotoxicity was 90% or greater)
2 | CCOC(=CC(=O)OC(C)C)COc1cc(-c2c(Cl)n3n(c2=O)CCCC3)c(F)cc1Cl [Compound 2-26] | 5 (Herbicidal effect/phytotoxicity was 90% or greater) | 5 (Herbicidal effect/phytotoxicity was 90% or greater) | 5 (Herbicidal effect/phytotoxicity was 90% or greater) | 5 (Herbicidal effect/phytotoxicity was 90% or greater) | 5 (Herbicidal effect/phytotoxicity was 90% or greater) | 5 (Herbicidal effect/phytotoxicity was 90% or greater)
3 | CC(C)CCOc1cc(-c2c(Cl)n3n(c2=O)CCCC3)c(F)cc1F [Example 1-93] | 5 (Herbicidal effect/phytotoxicity was 90% or greater) | 5 (Herbicidal effect/phytotoxicity was 90% or greater) | 5 (Herbicidal effect/phytotoxicity was 90% or greater) | 5 (Herbicidal effect/phytotoxicity was 90% or greater) | 5 (Herbicidal effect/phytotoxicity was 90% or greater) | 5 (Herbicidal effect/phytotoxicity was 90% or greater)
4 | COCOc1cccc(Oc2cc(-c3c(Cl)n4n(c3=O)CCCC4)c(F)cc2Cl)c1 [Compound 3-14] | 5 (Herbicidal effect/phytotoxicity was 90% or greater) | 5 (Herbicidal effect/phytotoxicity was 90% or greater) | 5 (Herbicidal effect/phytotoxicity was 90% or greater) | 5 (Herbicidal effect/phytotoxicity was 90% or greater) | 5 (Herbicidal effect/phytotoxicity was 90% or greater) | 5 (Herbicidal effect/phytotoxicity was 90% or greater)
5 | CCOC(=O)C(Cl)Cc1cc(-c2c(Cl)n3n(c2=O)CCCC3)c(F)cc1Cl (stereo not drawn) [Example 1-260] | 5 (Herbicidal effect/phytotoxicity was 90% or greater) | 5 (Herbicidal effect/phytotoxicity was 90% or greater) | 5 (Herbicidal effect/phytotoxicity was 90% or greater) | 5 (Herbicidal effect/phytotoxicity was 90% or greater) | 5 (Herbicidal effect/phytotoxicity was 90% or greater) | 5 (Herbicidal effect/phytotoxicity was 90% or greater)
6 | O=c1c(-c2cc(OC3C=CCCC3)c(Cl)cc2F)c(Cl)n2n1CCCC2 (stereo not drawn) [Example 1-232] | 5 (Herbicidal effect/phytotoxicity was 90% or greater) | 5 (Herbicidal effect/phytotoxicity was 90% or greater) | 5 (Herbicidal effect/phytotoxicity was 90% or greater) | 5 (Herbicidal effect/phytotoxicity was 90% or greater) | 5 (Herbicidal effect/phytotoxicity was 90% or greater) | 5 (Herbicidal effect/phytotoxicity was 90% or greater)
7 | COc1cc(-c2c(F)n3n(c2=O)CCCC3)c(Cl)cc1Cl [Example 1-356] | 5 (Herbicidal effect/phytotoxicity was 90% or greater) | 5 (Herbicidal effect/phytotoxicity was 90% or greater) | 5 (Herbicidal effect/phytotoxicity was 90% or greater) | 5 (Herbicidal effect/phytotoxicity was 90% or greater) | 5 (Herbicidal effect/phytotoxicity was 90% or greater) | 5 (Herbicidal effect/phytotoxicity was 90% or greater)
8 | O=c1c(-c2cc(Oc3cccc(O)c3)c(Cl)cc2F)c(Cl)n2n1CCCC2 [Compound 3-4] | 5 (Herbicidal effect/phytotoxicity was 90% or greater) | 5 (Herbicidal effect/phytotoxicity was 90% or greater) | 5 (Herbicidal effect/phytotoxicity was 90% or greater) | 5 (Herbicidal effect/phytotoxicity was 90% or greater) | 5 (Herbicidal effect/phytotoxicity was 90% or greater) | 5 (Herbicidal effect/phytotoxicity was 90% or greater)
9 | C=C(C)COC(=O)C=C(COc1cc(-c2c(Cl)n3n(c2=O)CCCC3)c(F)cc1Cl)OCCC [Compound 2-33] | 5 (Herbicidal effect/phytotoxicity was 90% or greater) | 5 (Herbicidal effect/phytotoxicity was 90% or greater) | 5 (Herbicidal effect/phytotoxicity was 90% or greater) | 5 (Herbicidal effect/phytotoxicity was 90% or greater) | 5 (Herbicidal effect/phytotoxicity was 90% or greater) | 5 (Herbicidal effect/phytotoxicity was 90% or greater)
10 | COC(=O)C(Cl)Cc1cc(-c2c(Cl)n3n(c2=O)CCCC3)c(F)cc1Cl (stereo not drawn) [Example 1-257] | 5 (Herbicidal effect/phytotoxicity was 90% or greater) | 5 (Herbicidal effect/phytotoxicity was 90% or greater) | 5 (Herbicidal effect/phytotoxicity was 90% or greater) | 5 (Herbicidal effect/phytotoxicity was 90% or greater) | 5 (Herbicidal effect/phytotoxicity was 90% or greater) | 5 (Herbicidal effect/phytotoxicity was 90% or greater)
11 | C=CCOc1cc(Cl)ccc1Oc1cc(-c2c(Cl)n3n(c2=O)CCCC3)c(F)cc1Cl [Compound 3-38] | 5 (Herbicidal effect/phytotoxicity was 90% or greater) | 5 (Herbicidal effect/phytotoxicity was 90% or greater) | 5 (Herbicidal effect/phytotoxicity was 90% or greater) | 5 (Herbicidal effect/phytotoxicity was 90% or greater) | 5 (Herbicidal effect/phytotoxicity was 90% or greater) | 5 (Herbicidal effect/phytotoxicity was 90% or greater)
12 | O=c1c(-c2ccc(F)cc2F)c(Cl)n2n1CCCC2 [Example 1-75] | 5 (Herbicidal effect/phytotoxicity was 90% or greater) | 5 (Herbicidal effect/phytotoxicity was 90% or greater) | 5 (Herbicidal effect/phytotoxicity was 90% or greater) | 5 (Herbicidal effect/phytotoxicity was 90% or greater) | 5 (Herbicidal effect/phytotoxicity was 90% or greater) | 5 (Herbicidal effect/phytotoxicity was 90% or greater)
